Test results reported in US9861575B2, “Vitamin-containing nutrition infusion for administration through peripheral vein” (AJINOMOTO CO., INC., priority 2010, dated 2018).
Where a name gives a salt, the structure may show the parent alone.

What was measured:
[1] = Test Example 7: stability of mixed solution of Example 11; type: physicochemical; conditions: mixed solution of Example 11, room temperature, light-shielded; value immediately after mixing = 100%
Protocol: Regarding the infusion formulations prepared in Example 11, the partition portions were opened to thoroughly mix the sugar solution with the amino acid solution at room temperature, and then the mixed solution was sampled after 0 hours, 24 hours, and 48 hours to measure the content of the respective vitamins and N-acetyl cysteine. In addition, the mixed solution was stored in a light-shielded environment. The value measured immediately after mixing was taken as 100%, and the content at each point in time of measurement is expressed as a percentage. All of the respective components remained stable until 48 hours elapsed after mixing.

[2] = Test Example 6: stability of respective vitamins on storage of infusion formulation of Example 11; type: physicochemical; conditions: in infusion formulation of Example 11, percentage based on the mixed amount; for residual rate (content), storage for 3 months / residual rate (content), storage for 1 month: 40° C. and 75% RH
Source text: In addition, the content is expressed as a percentage based on the mixed amount. From the results, it is considered that the infusion formulation of the present invention remains stable even when stored for a long time.

Row | Molecule | content after 24 hours [1] [%] | content after 48 hours [1] [%] | residual rate (content), storage for 3 months [2] [%] | residual rate (content) immediately after sterilization [2] [%] | residual rate (content), storage for 1 month [2] [%]
1 | O=C(O)CCCC[C@@H]1SC[C@@H]2NC(=O)N[C@@H]21 [Biotin] | 97.9 | 96.7 | 91.4 | 93.6 | –
2 | Nc1nc2ncc(CNc3ccc(C(=O)N[C@@H](CCC(=O)O)C(=O)O)cc3)nc2c(=O)[nH]1 [Folic acid] | 96.4 | 96.2 | 89.7 | 95.8 | 96.5
3 | CC(=O)N[C@@H](CS)C(=O)O [N-acetyl cysteine] | 98.3 | 97.5 | – | – | –
4 | NC(=O)c1cccnc1 [Nicotinamide] | 96.6 | 97.2 | 99.6 | 100.9 | 101.5
5 | CC(C)(CO)[C@@H](O)C(=O)NCCCO [Panthenol] | 100.0 | 100.2 | 96.8 | 97.8 | 97.6
6 | Cc1ncc(C[n+]2csc(CCO)c2C)c(N)n1 [Vitamin B1, Thiamine hydrochloride] | 99.4 | 94.1 | 83.5 | 93.3 | 90.6
7 | Cc1cc2nc3c(=O)[nH]c(=O)nc-3n(C[C@H](O)[C@H](O)[C@H](O)COP(=O)([O-])O)c2cc1C.[Na+] [Vitamin B2, Riboflavin sodium phosphate] | – | 99.8 | 92.6 | 94.7 | 94.3
8 | Cc1ncc(CO)c(CO)c1O.Cl [Vitamin B6, Pyridoxine hydrochloride] | 100.6 | 99.9 | 97.3 | 97.1 | 96.7
9 | O=C1O[C@H]([C@@H](O)CO)C(O)=C1O [Vitamin C, Ascorbic acid] | 97.1 | 92.2 | 99.7 | 96.1 | 97.6
10 | Cyanocobalamin [Vitamin B12] | 96.0 | 97.9 | 91.2 | 86.3 | 89.7
